Results taken from ChEMBL document CHEMBL3880410, “Novel oxabispidine compounds and their use in the treatment of cardiac arrhythmias” (2009).

Tested on: Cavia porcellus
Experiment: Anti-cardiac arrhythmia activity in anaesthetised guinea pig assessed as cumulative dose inducing prolongation of monophasic action potential duration by 10% from baseline administered as first dose infusion in 0.2 mL/kg into jugular vein catheter for 30 secs followed by next dosing after 5 mins for 6 to 10 consecutive times by electrophysiology based assay
Format: functional

SMILES: N#Cc1ccc(OCCCN2CC3CN(CCNS(=O)(=O)c4cccc(C#N)c4)CC(C2)O3)cc1
- D10: >5.5 mg/kg

SMILES: N#Cc1ccc(OCCCN2CC3CN(CCNS(=O)(=O)c4ccc5c(c4)CCO5)CC(C2)O3)cc1
- D10: >5.5 mg/kg

SMILES: Cc1noc(C)c1S(=O)(=O)NCCCN1CC2CN(Cc3ccc(C#N)cc3)CC(C1)O2
- D10: >5.5 mg/kg

SMILES: N#Cc1ccc(S(=O)(=O)NCCCN2CC3CN(CCOc4ccc(C#N)cc4F)CC(C2)O3)cc1
- D10: >5.5 mg/kg

SMILES: N#Cc1ccc(OCCN2CC3CN(CCNS(=O)(=O)c4cccc(F)c4)CC(C2)O3)cc1
- D10: >5.5 mg/kg

SMILES: N#Cc1ccc(OCCN2CC3CN(CCCNS(=O)(=O)c4ccccc4)CC(C2)O3)cc1
- D10: >5.5 mg/kg

SMILES: N#Cc1ccc(OCCN2CC3CN(CCNS(=O)(=O)c4ccccc4F)CC(C2)O3)cc1
- D10: >5.5 mg/kg

SMILES: N#Cc1ccc(OCCCN2CC3CN(CCNS(=O)(=O)c4ccccc4OC(F)(F)F)CC(C2)O3)cc1
- D10: >5.5 mg/kg

SMILES: Cc1noc(C)c1S(=O)(=O)NCCN1CC2CN(Cc3ccc(C#N)cc3)CC(C1)O2
- D10: >5.5 mg/kg

SMILES: Cc1oncc1S(=O)(=O)NCCN1CC2CN(CCCOc3ccc(C#N)cc3)CC(C1)O2
- D10: >5.5 mg/kg

SMILES: Cc1noc(C)c1CN1CC2CN(CCNS(=O)(=O)c3ccc(C#N)cc3)CC(C1)O2
- D10: >5.5 mg/kg

SMILES: CC(C)S(=O)(=O)NCCN1CC2CN(CCCOc3ccc(C#N)cc3)CC(C1)O2
- D10: >5.5 mg/kg

SMILES: N#Cc1ccc(OCCCN2CC3CN(CCNS(=O)(=O)c4cccc(F)c4)CC(C2)O3)cc1
- D10: >5.5 mg/kg

SMILES: Cc1noc(C)c1S(=O)(=O)NCCCN1CC2CN(CCOc3ccc(C#N)cc3)CC(C1)O2
- D10: >5.5 mg/kg

SMILES: N#Cc1ccc(S(=O)(=O)NCCN2CC3CN(Cc4ccccc4C#N)CC(C2)O3)cc1
- D10: >5.5 mg/kg

SMILES: N#Cc1ccc(OCCCN2CC3CN(CCNS(=O)(=O)Cc4ccccc4)CC(C2)O3)cc1
- D10: >5.5 mg/kg

SMILES: N#Cc1ccc(OCCN2CC3CN(CCNS(=O)(=O)Cc4ccc(C(F)(F)F)cc4)CC(C2)O3)cc1
- D10: >5.5 mg/kg

SMILES: N#Cc1ccc(OCCN2CC3CN(CCCNS(=O)(=O)c4ccccc4F)CC(C2)O3)cc1
- D10: >5.5 mg/kg

SMILES: Cc1noc(C)c1CN1CC2CN(CCS(=O)(=O)N(Cc3ccc(C#N)cc3)Cc3c(C)noc3C)CC(C1)O2
- D10: >5.5 mg/kg

SMILES: Cn1cnc(S(=O)(=O)NCCN2CC3CN(CCCOc4ccc(C#N)cc4)CC(C2)O3)c1
- D10: >5.5 mg/kg

SMILES: N#Cc1ccc(S(=O)(=O)NCCN2CC3CN(CCc4ccc(F)cc4)CC(C2)O3)cc1
- D10: >5.5 mg/kg

SMILES: N#Cc1ccc(OCCN2CC3CN(CCNS(=O)(=O)Cc4cccc(Cl)c4)CC(C2)O3)cc1
- D10: >5.5 mg/kg

SMILES: N#Cc1ccc(S(=O)(=O)NCCN2CC3CN(CCOc4ccc(F)cc4)CC(C2)O3)cc1
- D10: >5.5 mg/kg

SMILES: N#Cc1ccc(S(=O)(=O)NCCN2CC3CN(CCCOc4cccc(F)c4)CC(C2)O3)cc1
- D10: >5.5 mg/kg

SMILES: N#Cc1ccc(S(=O)(=O)NCCN2CC3CN(Cc4c[nH]c5ccccc45)CC(C2)O3)cc1
- D10: >5.5 mg/kg

SMILES: N#Cc1ccc(OCCN2CC3CN(CCNS(=O)(=O)c4ccccc4)CC(C2)O3)cc1
- D10: >5.5 mg/kg

SMILES: CC(C)(C)NS(=O)(=O)CCCN1CC2CN(CCCOc3ccc(C#N)cc3)CC(C1)O2
- D10: >5.5 mg/kg

SMILES: N#Cc1ccc(S(=O)(=O)NCCN2CC3CN(Cc4c[nH]c5ccc(F)cc45)CC(C2)O3)cc1
- D10: >5.5 mg/kg

SMILES: N#Cc1ccc(S(=O)(=O)NCCN2CC3CN(CCc4cccc(F)c4)CC(C2)O3)cc1
- D10: >5.5 mg/kg

SMILES: CC(C)S(=O)(=O)NCCN1CC2CN(C[C@H](O)COc3ccc(C#N)cc3)CC(C1)O2
- D10: >5.5 mg/kg

SMILES: Cc1noc(C)c1S(=O)(=O)NCCCN1CC2CN(CCCOc3ccc(C#N)cc3)CC(C1)O2
- D10: >5.5 mg/kg

SMILES: Cc1[nH]c2ccccc2c1CN1CC2CN(CCNS(=O)(=O)c3ccc(C#N)cc3)CC(C1)O2
- D10: >5.5 mg/kg

SMILES: N#Cc1ccc(S(=O)(=O)NCCN2CC3CN(CCCOc4ccc(C#N)cc4F)CC(C2)O3)cc1
- D10: >5.5 mg/kg

SMILES: N#Cc1ccc(OCCN2CC3CN(CCNS(=O)(=O)c4ccc(F)cc4)CC(C2)O3)cc1
- D10: >5.5 mg/kg

SMILES: Cc1nn(C)c(Cl)c1S(=O)(=O)NCCN1CC2CN(CCOc3ccc(C#N)cc3)CC(C1)O2
- D10: >5.5 mg/kg

SMILES: N#Cc1ccc(OCCCN2CC3CN(CCCNS(=O)(=O)c4ccccc4)CC(C2)O3)cc1
- D10: >5.5 mg/kg

SMILES: N#Cc1ccc(OCCCN2CC3CN(CCNS(=O)(=O)c4ccc(F)cc4F)CC(C2)O3)cc1
- D10: >5.5 mg/kg

SMILES: N#Cc1ccc(OCCN2CC3CN(CCNS(=O)(=O)c4ccccc4C#N)CC(C2)O3)cc1
- D10: >5.5 mg/kg

SMILES: N#Cc1ccc(CN2CC3CN(CCNS(=O)(=O)c4ccc(C#N)cc4)CC(C2)O3)cc1
- D10: >5.5 mg/kg

SMILES: N#Cc1ccc(S(=O)(=O)NCCN2CC3CN(CCCOc4ccc(F)c(F)c4)CC(C2)O3)cc1
- D10: >5.5 mg/kg

SMILES: N#Cc1ccc(OCCN2CC3CN(CCCNS(=O)(=O)c4ccc(F)cc4)CC(C2)O3)c(F)c1
- D10: >5.5 mg/kg

SMILES: N#Cc1ccc(S(=O)(=O)NCCN2CC3CN(CCOc4c(F)cccc4F)CC(C2)O3)cc1
- D10: >5.5 mg/kg

SMILES: N#Cc1ccc(S(=O)(=O)NCCN2CC3CN(CCOc4ccccc4F)CC(C2)O3)cc1
- D10: >5.5 mg/kg

SMILES: CS(=O)(=O)NCCN1CC2CN(CCOc3ccc(C#N)cc3)CC(C1)O2
- D10: >5.5 mg/kg

SMILES: N#Cc1ccc(S(=O)(=O)NCCN2CC3CN(CCCOc4c(F)cc(C#N)cc4F)CC(C2)O3)cc1
- D10: >5.5 mg/kg

SMILES: N#Cc1ccc(OCCCN2CC3CN(CCNS(=O)(=O)c4ccc(F)cc4)CC(C2)O3)cc1
- D10: >5.5 mg/kg

SMILES: N#Cc1ccc(CN2CC3CN(CCNS(=O)(=O)Cc4ccccc4)CC(C2)O3)cc1
- D10: >5.5 mg/kg

SMILES: N#Cc1ccc(OCCCN2CC3CN(CCCNS(=O)(=O)Cc4ccccc4)CC(C2)O3)cc1
- D10: >5.5 mg/kg

SMILES: N#Cc1ccc(OCCN2CC3CN(CCNS(=O)(=O)c4cccc(C#N)c4)CC(C2)O3)cc1
- D10: >5.5 mg/kg

SMILES: N#Cc1ccc(S(=O)(=O)NCCN2CC3CN(Cc4coc5ccccc45)CC(C2)O3)cc1
- D10: >5.5 mg/kg

SMILES: Cn1cnc(S(=O)(=O)NCCN2CC3CN(CCOc4ccc(C#N)cc4)CC(C2)O3)c1
- D10: >5.5 mg/kg

SMILES: Cc1cc(C)n(CCN2CC3CN(CCNS(=O)(=O)c4ccc(C#N)cc4)CC(C2)O3)n1
- D10: >5.5 mg/kg

SMILES: N#Cc1ccc(CNS(=O)(=O)CCN2CC3CN(Cc4ccccc4C#N)CC(C2)O3)cc1
- D10: >5.5 mg/kg

SMILES: Cc1noc(C)c1S(=O)(=O)NCCN1CC2CN(CCCOc3ccc(C#N)cc3)CC(C1)O2
- D10: >5.5 mg/kg

SMILES: CCCCS(=O)(=O)NCCN1CC2CN(CCCOc3ccc(C#N)cc3)CC(C1)O2
- D10: >5.5 mg/kg

SMILES: N#Cc1ccc(S(=O)(=O)NCCN2CC3CN(CCc4ccc(F)c(F)c4)CC(C2)O3)cc1
- D10: >5.5 mg/kg

SMILES: N#Cc1ccc(CNS(=O)(=O)CCN2CC3CN(Cc4ccc(C#N)cc4)CC(C2)O3)cc1
- D10: >5.5 mg/kg

SMILES: N#Cc1ccc(OCCCN2CC3CN(CCNS(=O)(=O)Cc4ccc(C(F)(F)F)cc4)CC(C2)O3)cc1
- D10: >5.5 mg/kg

SMILES: CC(C)S(=O)(=O)NCCCN1CC2CN(CCCOc3ccc(C#N)cc3)CC(C1)O2
- D10: >5.5 mg/kg

SMILES: Cc1nn(C)c(Cl)c1S(=O)(=O)NCCN1CC2CN(CCCOc3ccc(C#N)cc3)CC(C1)O2
- D10: >5.5 mg/kg

SMILES: COc1ccc(S(=O)(=O)NCCN2CC3CN(CCCOc4ccc(C#N)cc4)CC(C2)O3)cc1
- D10: >5.5 mg/kg

SMILES: N#Cc1ccc(OCCN2CC3CN(CCCNS(=O)(=O)c4ccc(F)cc4)CC(C2)O3)cc1
- D10: >5.5 mg/kg

SMILES: N#Cc1ccc(OCCCN2CC3CN(CCNS(=O)(=O)c4ccccc4)CC(C2)O3)cc1
- D10: >5.5 mg/kg

SMILES: N#Cc1ccc(OCCN2CC3CN(CCCNS(=O)(=O)c4ccc(F)cc4F)CC(C2)O3)cc1
- D10: >5.5 mg/kg

SMILES: N#Cc1ccc(CN2CC3CN(CCNS(=O)(=O)c4cccc(C#N)c4)CC(C2)O3)cc1
- D10: >5.5 mg/kg

SMILES: N#Cc1ccc(OCCCN2CC3CN(CCNS(=O)(=O)C(F)(F)F)CC(C2)O3)cc1
- D10: >5.5 mg/kg

SMILES: N#Cc1ccc(OCCN2CC3CN(CCNS(=O)(=O)Cc4ccccc4)CC(C2)O3)cc1
- D10: >5.5 mg/kg

SMILES: N#Cc1ccc(S(=O)(=O)NCCN2CC3CN(CCCOc4ccc(F)cc4)CC(C2)O3)cc1
- D10: >5.5 mg/kg

SMILES: N#Cc1ccc(CN2CC3CN(CCNS(=O)(=O)c4ccccc4C#N)CC(C2)O3)cc1
- D10: >5.5 mg/kg

SMILES: N#Cc1ccc(S(=O)(=O)NCCN2CC3CN(CCCOc4cc(F)ccc4F)CC(C2)O3)cc1
- D10: >5.5 mg/kg

SMILES: N#Cc1ccc(S(=O)(=O)NCCN2CC3CN(CCCOc4ccccc4F)CC(C2)O3)cc1
- D10: >5.5 mg/kg

SMILES: N#Cc1ccc(S(=O)(=O)NCCN2CC3CN(Cc4ccc(OC(F)F)cc4)CC(C2)O3)cc1
- D10: >5.5 mg/kg

SMILES: N#Cc1ccc(OCCCN2CC3CN(CCNS(=O)(=O)c4ccc(C#N)cc4)CC(C2)O3)cc1
- D10: >5.5 mg/kg

SMILES: CS(=O)(=O)NCCN1CC2CN(CCCOc3ccc(C#N)cc3)CC(C1)O2
- D10: >5.5 mg/kg

SMILES: N#Cc1ccc(OCCCN2CC3CN(CCNS(=O)(=O)c4ccccc4C#N)CC(C2)O3)cc1
- D10: >5.5 mg/kg

SMILES: N#Cc1ccc(OCCN2CC3CN(CCNS(=O)(=O)c4ccc5c(c4)CCO5)CC(C2)O3)cc1
- D10: >5.5 mg/kg

SMILES: N#Cc1ccc(OCCN2CC3CN(CCNS(=O)(=O)c4ccc(C#N)cc4)CC(C2)O3)cc1
- D10: >5.5 mg/kg

SMILES: O=S(=O)(NCCN1CC2CN(Cc3ccccc3)CC(C1)O2)c1ccc(F)cc1
- D10: >5.5 mg/kg

SMILES: CC(C)(C)OC(=O)NCCN1CC2CN(CCNS(=O)(=O)c3ccc(F)cc3)CC(C1)O2
- D10: >5.5 mg/kg

SMILES: N#Cc1ccc(OCCN2CC3CN(CCCNS(=O)(=O)Cc4ccccc4)CC(C2)O3)cc1
- D10: >5.5 mg/kg

SMILES: N#Cc1ccc(OCCN2CC3CN(CCCNS(=O)(=O)c4ccc(F)cc4F)CC(C2)O3)c(F)c1
- D10: >5.5 mg/kg

SMILES: N#Cc1ccc(OCCCN2CC3CN(CCNS(=O)(=O)Cc4cccc(Cl)c4)CC(C2)O3)cc1
- D10: >5.5 mg/kg

SMILES: N#Cc1ccc(S(=O)(=O)NCCN2CC3CN(CCOc4ccc(C#N)cc4F)CC(C2)O3)cc1
- D10: >5.5 mg/kg

SMILES: N#Cc1ccc(S(=O)(=O)NCCN2CC3CN(Cc4nc5ccccc5o4)CC(C2)O3)cc1
- D10: >5.5 mg/kg

SMILES: N#Cc1ccc(S(=O)(=O)NCCN2CC3CN(Cc4ccc(F)cc4)CC(C2)O3)cc1
- D10: >5.5 mg/kg

SMILES: COc1ccc(S(=O)(=O)NCCN2CC3CN(CCOc4ccc(C#N)cc4)CC(C2)O3)cc1
- D10: >5.5 mg/kg
